Source: US7494996B2 (priority 2000, dated 2009)

Columns and labels:
Pyricularia oryzae = test: whole plant or invertebrate; format: in vivo; settings: 100 is total disease control, 0 is no disease control; for Rice Blast (RB) protectant fungicide data, percent control: 300 g/ha, greenhouse; for pest or weed control at 300 g/ha: Pyricularia oryzae, topical, 144 h, read-out: Rice Blast (RB) protectant fungicide data, percent control, protectant, 300 g/ha, greenhouse
Sphaerotheca fuliginea = test: Cucumber Powdery Mildew (CPM) protectant test in the greenhouse; format: in vivo; settings: 100 is total disease control, 0 is no disease control; for Cucumber Powdery Mildew (CPM) protectant fungicide data, percent control: 300 g/ha; for pest or weed control at 300 g/ha: Podosphaera fuliginea, topical, 168 h, read-out: Cucumber Powdery Mildew (CPM) protectant fungicide data, percent control
Experimental: Plants used in the fungicide testing program were grown in 2-¼-inch (5.7-cm). square pots containing RediEarth propagation substrate. The plants were raised under greenhouse conditions. The rice plants were 12-days-old and cucumbers were 13-days-old at the time of spraying with chemical treatments.
The sample of the experimental chemical was weighed and dissolved in an acetone-methanol-water solution (A/M/W at 1:1:2 ratio by volume).
After sprayer calibration, the test solutions were poured into the fungicide sprayer. The fungicide sprayer contains three spray nozzles, located approximately 10 cm above and to the sides of the plants. The spray produced by the nozzles results in uniform coverage of both the upper and lower parts of the plant leaves. After spraying, the treated plants were placed in a drying chamber for 4 hours, prior to sorting.
Cucumber Powdery Mildew (CPM), caused by the fungus Sphaerotheca fuliginea, was maintained on large cucumber plants. For inoculum preparation, five to eight leaves depending on size, completely covered with powdery mildew spores, were collected. The leaves were placed in a glass jar and covered with 500 ml of water, containing 5 drops of Tween-80. The material was filtered through two layers of cheesecloth to remove leaf fragments. The spore count was adjusted to 2×10^5 spores per ml.
Cucumber plants, cv. “Bush Champion,” were used for this test. The plants were thinned to one per pot after the cotyledons were fully developed. Two days before the test, the small leaves and meristem region were removed, leaving only the cotyledons and one large true leaf.
The protectant tests required that the cucumber plants be inoculated 1 day after spraying with the chemical treatment. The plants were inoculated with a hand-held spray bottle with the suspension of fungal spores. The leaves were lightly misted on the upper surface from two different spray directions. Disease development occurred in the greenhouse.
After seven days, the plants were evaluated for percent of disease control. The results are reported as percent control; 100 is total disease control, 0 is no disease control.

Structure (SMILES): CCCCN1N=C(c2ccc(Cl)c(Cl)c2)N(C(=O)OCCCl)CC1=O [Compound 179]
- Rice Blast (RB) protectant fungicide data, percent control (Pyricularia oryzae): 75 percent control
- Cucumber Powdery Mildew (CPM) protectant fungicide data, percent control (Sphaerotheca fuliginea): 0 percent control

Structure (SMILES): O=C1CNC(c2ccc(Cl)cc2Cl)=NN1CC(F)(F)F [Compound 73]
- Rice Blast (RB) protectant fungicide data, percent control (Pyricularia oryzae): 85 percent control
- Cucumber Powdery Mildew (CPM) protectant fungicide data, percent control (Sphaerotheca fuliginea): 75 percent control

Structure (SMILES): CN1N=C(c2ccc(C(F)(F)F)cc2)NCC1=O [Compound 122]
- Rice Blast (RB) protectant fungicide data, percent control (Pyricularia oryzae): 75 percent control
- Cucumber Powdery Mildew (CPM) protectant fungicide data, percent control (Sphaerotheca fuliginea): 75 percent control

Structure (SMILES): CCCCN1N=C(c2cccc(C#N)c2)NCC1=O [Compound 175]
- Rice Blast (RB) protectant fungicide data, percent control (Pyricularia oryzae): 95 percent control
- Cucumber Powdery Mildew (CPM) protectant fungicide data, percent control (Sphaerotheca fuliginea): 0 percent control

Structure (SMILES): C=CC(=O)N1CC(=O)N(CC(F)(F)F)N=C1c1cc(Cl)cc(Cl)c1 [Compound 137]
- Rice Blast (RB) protectant fungicide data, percent control (Pyricularia oryzae): 85 percent control
- Cucumber Powdery Mildew (CPM) protectant fungicide data, percent control (Sphaerotheca fuliginea): 0 percent control

Structure (SMILES): CCCCCN1N=C(c2cc(Cl)c(C)c(Cl)c2)NCC1=O [Compound 49]
- Rice Blast (RB) protectant fungicide data, percent control (Pyricularia oryzae): 95 percent control
- Cucumber Powdery Mildew (CPM) protectant fungicide data, percent control (Sphaerotheca fuliginea): 75 percent control

Structure (SMILES): CCCCN1N=C(c2cccc(C(F)(F)F)c2)NCC1=O [Compound 115]
- Rice Blast (RB) protectant fungicide data, percent control (Pyricularia oryzae): 100 percent control
- Cucumber Powdery Mildew (CPM) protectant fungicide data, percent control (Sphaerotheca fuliginea): 50 percent control

Structure (SMILES): CC=CC(=O)N1CC(=O)N(CCCC)N=C1c1ccc(Cl)c(Cl)c1 [Compound 177]
- Rice Blast (RB) protectant fungicide data, percent control (Pyricularia oryzae): 95 percent control
- Cucumber Powdery Mildew (CPM) protectant fungicide data, percent control (Sphaerotheca fuliginea): 50 percent control

Structure (SMILES): C#CCN1CC(=O)N(CCCC)N=C1c1ccc(Cl)c(Cl)c1 [Compound 168]
- Rice Blast (RB) protectant fungicide data, percent control (Pyricularia oryzae): 95 percent control
- Cucumber Powdery Mildew (CPM) protectant fungicide data, percent control (Sphaerotheca fuliginea): 50 percent control

Structure (SMILES): CCCCN1N=C(C)NC(c2ccc(F)c(C)c2)C1=O (centres unmarked) [Compound 94]
- Rice Blast (RB) protectant fungicide data, percent control (Pyricularia oryzae): 0 percent control
- Cucumber Powdery Mildew (CPM) protectant fungicide data, percent control (Sphaerotheca fuliginea): 75 percent control

Structure (SMILES): C#CCN1N=C(c2ccc(F)c(Br)c2)NCC1=O [Compound 218]
- Rice Blast (RB) protectant fungicide data, percent control (Pyricularia oryzae): 98 percent control
- Cucumber Powdery Mildew (CPM) protectant fungicide data, percent control (Sphaerotheca fuliginea): 80 percent control

Structure (SMILES): O=C1CNC(c2ccccc2)=NN1 [Compound 32]
- Rice Blast (RB) protectant fungicide data, percent control (Pyricularia oryzae): 75 percent control
- Cucumber Powdery Mildew (CPM) protectant fungicide data, percent control (Sphaerotheca fuliginea): 50 percent control

Structure (SMILES): O=C1CNC(c2cccc([N+](=O)[O-])c2)=NN1Cc1ccccc1 [Compound 184]
- Rice Blast (RB) protectant fungicide data, percent control (Pyricularia oryzae): 85 percent control
- Cucumber Powdery Mildew (CPM) protectant fungicide data, percent control (Sphaerotheca fuliginea): 75 percent control

Structure (SMILES): CCCCN1N=C(c2ccc3ccccc3c2)NCC1=O [Compound 119]
- Rice Blast (RB) protectant fungicide data, percent control (Pyricularia oryzae): 99 percent control
- Cucumber Powdery Mildew (CPM) protectant fungicide data, percent control (Sphaerotheca fuliginea): 0 percent control

Structure (SMILES): O=C1CNC(c2ccc(-c3ccccc3)cc2)=NN1CC(F)(F)F [Compound 146]
- Rice Blast (RB) protectant fungicide data, percent control (Pyricularia oryzae): 95 percent control
- Cucumber Powdery Mildew (CPM) protectant fungicide data, percent control (Sphaerotheca fuliginea): 85 percent control

Structure (SMILES): C=C(C)C1NC(c2ccc(Cl)c(Cl)c2)=NN(CCCC)C1=O (centres unmarked) [Compound 203]
- Rice Blast (RB) protectant fungicide data, percent control (Pyricularia oryzae): 85 percent control
- Cucumber Powdery Mildew (CPM) protectant fungicide data, percent control (Sphaerotheca fuliginea): 0 percent control

Structure (SMILES): O=c1cnc(-c2ccc(F)c(Br)c2)nn1CC(F)(F)F [Compound 290]
- Rice Blast (RB) protectant fungicide data, percent control (Pyricularia oryzae): 100 percent control
- Cucumber Powdery Mildew (CPM) protectant fungicide data, percent control (Sphaerotheca fuliginea): 50 percent control

Structure (SMILES): CCCCN1N=C(c2cccc(C3=NN(CCCC)C(=O)CN3)c2)NCC1=O [Compound 232]
- Rice Blast (RB) protectant fungicide data, percent control (Pyricularia oryzae): 100 percent control
- Cucumber Powdery Mildew (CPM) protectant fungicide data, percent control (Sphaerotheca fuliginea): 99 percent control

Structure (SMILES): CCOCCN1N=C(c2cc(Cl)cc(Cl)c2)NCC1=O [Compound 108]
- Rice Blast (RB) protectant fungicide data, percent control (Pyricularia oryzae): 90 percent control
- Cucumber Powdery Mildew (CPM) protectant fungicide data, percent control (Sphaerotheca fuliginea): 85 percent control

Structure (SMILES): CCCCN1N=C(c2cc(Cl)ccc2Cl)NCC1=O [Compound 74]
- Rice Blast (RB) protectant fungicide data, percent control (Pyricularia oryzae): 99 percent control
- Cucumber Powdery Mildew (CPM) protectant fungicide data, percent control (Sphaerotheca fuliginea): 0 percent control

Structure (SMILES): O=C1CNC(c2cccc(F)c2)=NN1CC(F)(F)F [Compound 84]
- Rice Blast (RB) protectant fungicide data, percent control (Pyricularia oryzae): 80 percent control
- Cucumber Powdery Mildew (CPM) protectant fungicide data, percent control (Sphaerotheca fuliginea): 85 percent control

Structure (SMILES): C#CCN1N=C(c2cccc(C(F)(F)F)c2)NCC1=O [Compound 88]
- Rice Blast (RB) protectant fungicide data, percent control (Pyricularia oryzae): 100 percent control
- Cucumber Powdery Mildew (CPM) protectant fungicide data, percent control (Sphaerotheca fuliginea): 50 percent control

Structure (SMILES): CCCCN1N=C(c2ccccc2OCc2ccccc2)NCC1=O [Compound 213]
- Rice Blast (RB) protectant fungicide data, percent control (Pyricularia oryzae): 85 percent control
- Cucumber Powdery Mildew (CPM) protectant fungicide data, percent control (Sphaerotheca fuliginea): 50 percent control

Structure (SMILES): CCCCN1N=C(C)NC(c2ccc(C)cc2)C1=O (centres unmarked) [Compound 75]
- Rice Blast (RB) protectant fungicide data, percent control (Pyricularia oryzae): 0 percent control
- Cucumber Powdery Mildew (CPM) protectant fungicide data, percent control (Sphaerotheca fuliginea): 85 percent control

Structure (SMILES): O=C1C(O)NC(c2ccccn2)=NN1CC(F)(F)F (centres unmarked) [Compound 53]
- Rice Blast (RB) protectant fungicide data, percent control (Pyricularia oryzae): 75 percent control
- Cucumber Powdery Mildew (CPM) protectant fungicide data, percent control (Sphaerotheca fuliginea): 0 percent control

Structure (SMILES): CCOC(=O)N1N=C(c2cccc(Cl)c2)NCC1=O [Compound 198]
- Rice Blast (RB) protectant fungicide data, percent control (Pyricularia oryzae): 80 percent control
- Cucumber Powdery Mildew (CPM) protectant fungicide data, percent control (Sphaerotheca fuliginea): 0 percent control

Structure (SMILES): Cc1cc(C2=NN(CC(F)(F)F)C(=O)CN2)ccc1[N+](=O)[O-] [Compound 157]
- Rice Blast (RB) protectant fungicide data, percent control (Pyricularia oryzae): 98 percent control
- Cucumber Powdery Mildew (CPM) protectant fungicide data, percent control (Sphaerotheca fuliginea): 0 percent control

Structure (SMILES): O=C1CNC(c2c(Cl)cncc2Cl)=NN1CC(F)(F)F [Compound 159]
- Rice Blast (RB) protectant fungicide data, percent control (Pyricularia oryzae): 85 percent control
- Cucumber Powdery Mildew (CPM) protectant fungicide data, percent control (Sphaerotheca fuliginea): 0 percent control

Structure (SMILES): CCCN1N=C(c2ccc(F)cc2)NCC1=O [Compound 148]
- Rice Blast (RB) protectant fungicide data, percent control (Pyricularia oryzae): 80 percent control
- Cucumber Powdery Mildew (CPM) protectant fungicide data, percent control (Sphaerotheca fuliginea): 80 percent control

Structure (SMILES): CCCCOc1ccc(-c2ncc(=O)n(CCC)n2)cc1 [Compound 280]
- Rice Blast (RB) protectant fungicide data, percent control (Pyricularia oryzae): 50 percent control
- Cucumber Powdery Mildew (CPM) protectant fungicide data, percent control (Sphaerotheca fuliginea): 0 percent control

Structure (SMILES): O=C1CNC(c2ccc(F)c(Cl)c2)=NN1CC(F)(F)F [Compound 1, 1-(2,2,2-trifluoroethyl)-3-(3-chloro-4-fluorophenyl)-4,5-dihydro-1,2,4-triazin-6-one]
- pest or weed control at 300 g/ha (Pyricularia oryzae): 99%
- pest or weed control at 300 g/ha (Sphaerotheca fuliginea): 80%

Structure (SMILES): CC(C)(C)OC(=O)N1CC(=O)N(C(=O)OC(C)(C)C)N=C1c1cc(Cl)cc(Cl)c1 [Compound 11, 1,4-di-(t-butoxycarbonyl)-3-(3,5-dichlorphenyl)-4,5-dihydro-1,2,4-triazin-6-one]
- Rice Blast (RB) protectant fungicide data, percent control (Pyricularia oryzae): 75 percent control
- Cucumber Powdery Mildew (CPM) protectant fungicide data, percent control (Sphaerotheca fuliginea): 0 percent control

Structure (SMILES): C#CCSC(=S)N1CC(=O)N(CCCC)N=C1c1ccc(Cl)c(Cl)c1 [Compound 192]
- Rice Blast (RB) protectant fungicide data, percent control (Pyricularia oryzae): 99 percent control
- Cucumber Powdery Mildew (CPM) protectant fungicide data, percent control (Sphaerotheca fuliginea): 75 percent control

Structure (SMILES): CCCCOc1ccc(C2=NN(CC(F)(F)F)C(=O)CN2)cc1 [Compound 155]
- Rice Blast (RB) protectant fungicide data, percent control (Pyricularia oryzae): 90 percent control
- Cucumber Powdery Mildew (CPM) protectant fungicide data, percent control (Sphaerotheca fuliginea): 85 percent control

Structure (SMILES): CCc1ccc(C2=NN(CCc3ccccc3)C(=O)CN2)cc1 [Compound 189]
- Rice Blast (RB) protectant fungicide data, percent control (Pyricularia oryzae): 80 percent control
- Cucumber Powdery Mildew (CPM) protectant fungicide data, percent control (Sphaerotheca fuliginea): 75 percent control

Structure (SMILES): C#CCN1CC(=O)N(CC(F)(F)F)N=C1c1cc(Cl)cc(Cl)c1 [Compound 169]
- Rice Blast (RB) protectant fungicide data, percent control (Pyricularia oryzae): 50 percent control
- Cucumber Powdery Mildew (CPM) protectant fungicide data, percent control (Sphaerotheca fuliginea): 0 percent control

Structure (SMILES): CCCCN1N=C(c2ccc(Cl)c(Cl)c2)N(Cc2ccccc2)CC1=O [Compound 182]
- Rice Blast (RB) protectant fungicide data, percent control (Pyricularia oryzae): 85 percent control
- Cucumber Powdery Mildew (CPM) protectant fungicide data, percent control (Sphaerotheca fuliginea): 0 percent control

Structure (SMILES): N#Cc1cccc(C2=NN(CC(F)(F)F)C(=O)CN2)c1 [Compound 176]
- Rice Blast (RB) protectant fungicide data, percent control (Pyricularia oryzae): 50 percent control
- Cucumber Powdery Mildew (CPM) protectant fungicide data, percent control (Sphaerotheca fuliginea): 50 percent control

Structure (SMILES): CCCCN1Nc2c3c(Cl)c(Cl)ccc3cn2CC1=O [Compound 23, 9,10-Dichloro-2-butyl-1,2,4-triazino[3,4-a]isoindol-3(4H)-one]
- pest or weed control at 300 g/ha (Pyricularia oryzae): 0%
- pest or weed control at 300 g/ha (Sphaerotheca fuliginea): 50%

Structure (SMILES): Cc1cccc(N2N=C(c3ccc(-c4ccccc4)cc3)NCC2=O)c1 [Compound 186]
- Rice Blast (RB) protectant fungicide data, percent control (Pyricularia oryzae): 85 percent control
- Cucumber Powdery Mildew (CPM) protectant fungicide data, percent control (Sphaerotheca fuliginea): 0 percent control
